# Structures can show the parent of a compound that is named as a salt. Where two headings read alike, the source gives them in different places.
# Columns and labels:
# [1] = system: Delayed-Type Hypersensitivity; experiment: Test n° 4: in vivo DTH (Delayed-Type Hypersensitivity) assay, SRBC-induced footpad thickness increase; design: species or system female C57 B1/6 mice; details: Mus musculus, read-out: DTH ED30 os
# Description: Comparative in Vivo Activity Evaluation by DTH Assay
# The immunosuppressive activity of the compounds of the invention was evaluated in vivo by DTH (Delayed-Type Hypersensitivity) assay. According to the test, sheep red blood cells (SRBC) (1×10^5 cells) suspended in 500 mcL saline, were injected i.v. into the tail vein of female C57 B1/6 mice (8-9 week old). Five days later 1×10^8 SRBC suspended in 50 mcL saline were injected into the left hind footpad. The increase in footpad thickness was measured with a dial micrometer 24 h after challenge. The test compounds were given daily for six days at different doses starting on the day of priming.
# [2] = Test n° 5: in vivo bioavailability evaluation after oral administration; details: rat, 10 mg/kg
# Description: In Vivo Bioavailability Evaluation
# Aim of the study is to determine the pharmacokinetics and the oral bioavailability of the instant compounds in rats.
# Species/strain/sex: rat/Lewis/male
# No. formulations: 1 oral; 1 intravenous
# No. animals/formulation: 3+2 controls (+an ulterior rat treated with the iv formulation); total 9
# Dosages: iv: 1 mg salt/kg; oral: 10 mg salt/kg
# Vehicles: iv: a solution at the conc. of 5 mg/ml in PEG 400/Tween 80 (6:1 v:v) was prepared, then diluted with dextrose at the final concentration of 0.5 mg/ml; oral: a solution at the concentration of 5 mg/ml in Cremophor ELP/EtOH abs (6.5:3.5 v:v) was prepared, then diluted with saline at the final concentration of 1 mg/ml
# Experimental: Three cannulated rats/formulation were treated. One rat/formulation was only treated with the vehicle, as basal sample. The intravenous administration was given into the caudal vein as bolus; the oral administration by gastric gavage as solution. […] Plasma was immediately obtained by centrifugation (10000 rpm for 3 min) and stored in labelled tubes at -30° C. till analysis.
# Analytical assay: the extraction of the compounds was performed by protein precipitation by adding 100 mcl of acetonitrile to 25 mcl of plasma. The concentrations of the compounds (as free bases) in plasma were determined by LC-MS method. Column: APEX CN RP 5 mc, 10×4 mm (Jones chromatography); mobil phase: 70% acetonitrile/30% 1 mM ammonium formate +0.01% triethylamine adjusted to pH 2.0 with formic acid; flow rate: 1 ml/min; injection volume: 10 mcL; oven temperature: 45° C.; MS detection by APCI using MRM positive ion; MRM transition: 330 m/z>239 m/z, retention time: 1.4 min; LLOQ: 5.03 ng/ml; ULOQ: 10060 ng/ml.
# [3] = system: Th2 murine cells D10-G4.1 (ATCC TIB 224); experiment: Inhibition of IL-2 proliferation induced activity (D10 cells, 3H-TdR uptake); assay type: cell-based
# Description: Inhibition of IL-2 Proliferation Induced Activity
# The Th2 murine cells D10-G4.1 (ATCC TIB 224) are IL-2 dependent for their growth. They are cultured in complete RPMI 1640 medium enriched with rhIL-2 (6 ng/ml) and ConA (6 ng/ml).
# For testing the inhibitory effects of the compounds of the invention on IL-2 activity, D 10 cells are washed twice with complete medium, resuspended at 10^5 cells/ml in the same medium and triplicately distributed (10^4 cells/well) in flat bottomed 96 well plates. […] and […] at different concentrations are simultaneously added to the cells. The cultures are then incubated at 37° C. in a humidified 5% CO2 incubator for 48 h, the last 18 h in the presence of 0.2 μCi of ^3 H-TdR.
# Uptake of 3H-TdR in the cells (cpm) is taken as a measure of cell proliferation.
# [4] = oral (os), daily for six days, dose able to reduce by 30% the footpad thickness increase compared to controls, 24 h after challenge, mice
bioavailability ([2]; plasma),Compound,"ED30 [1, 4]",ED30 ([1]; 24 h),bioavailability ([2]; in vivo),"3HTdR uptake ([3]; 10 ng/ml, mean cpm from triplicate wells (SE), vehicle 61231 (1193))","3HTdR uptake ([3]; 30 ng/ml, mean cpm from triplicate wells (SE), vehicle 61231 (1193))",3HTdR uptake ([3]; 0.1 ug/mL),"inhibition at 0.01 µg/mL ([3]; Mus musculus, 10 ng/ml, 48 h, read-out: % inhibition vs vehicle)","inhibition at 0.03 µg/mL ([3]; Mus musculus, 30 ng/ml, 48 h, read-out: % inhibition vs vehicle)","inhibition at 0.1 µg/mL ([3]; Mus musculus, 100 ng/ml, 48 h, read-out: % inhibition vs vehicle)"
20%,"CC1=NC(=Cc2[nH]c(-c3cc4ccccc4[nH]3)cc2OCc2ccccc2)C=C1 [PNU 190537, 2-(1H-indol-2-yl)-4-benzyloxy-5-[(5-methyl-2H-pyrrol-2-ylidene)methyl]-1H-pyrrole, hydrochloride]",11.9 mg/kg,–,–,–,–,–,–,–,–
82%,"COc1cc(-c2cc3ccccc3[nH]2)[nH]c1C=C1C=CC(C)=N1.Cl [PNU 190364, 2-(1H-indol-2-yl)-4-methoxy-5-[(5-methyl-2H-pyrrol-2-ylidene)methyl]-1H-pyrrole, hydrochloride]",6.6 mg/kg,–,–,–,–,–,–,–,–
–,"CCCCCCCCCCCC1=NC(=Cc2[nH]c(-c3cc4ccccc4[nH]3)cc2OC)C=C1.Cl [PNU 166823, 2-(1H-indol-2-yl)-4-methoxy-5-[(5-undecyl-2H-pyrrol-2-ylidene)methyl]-1H-pyrrole, hydrochloride]",–,8.8 mg/kg,5%,–,–,–,–,–,–
38%,"CCCCCC1=NC(=Cc2[nH]c(-c3cc4ccccc4[nH]3)cc2OC)C=C1.Cl [PNU 190192, 2-(1H-indol-2-yl)-4-methoxy-5-[(5-pentyl-2H-pyrrol-2-ylidene)methyl]-1H-pyrrole, hydrochloride]",7.1 mg/kg,–,–,57325 (1280) cpm,29681 (1528) cpm,1388 (62) cpm,6%,52%,98%

# Reference: patent US6071947A, “Indolyl-pyrrolydenemethylpyrrole derivatives and process for their preparation” (Pharmacia & Upjohn S.p.A., priority 1997, dated 2000)
